Assay results as given in article PMC10536273, “Development of Masitinib Derivatives with Enhanced M^pro Ligand Efficiency and Reduced Cytotoxicity” (Molecules, 2023).
Structures can show the parent of a compound that is named as a salt. Where two headings read alike, the source gives them in different places.

What was measured:
[1] = system: HCoV-OC43; experiment: microbe, parasite or virus in culture; assay type: cell-based; details: for IC50: read-out: IC50, HCoV-OC43 antiviral assay
[2] = system: A549 cells; experiment: Compound toxicity assay, live cell imaging of A549 cell growth; details: compared to DMSO
[3] = biological target: SARS-CoV-2 M^pro (Severe acute respiratory syndrome coronavirus 2, UniProt P0DTD1); experiment: cell-based; details: transfected HEK-293T cells, 24 h; for IC50: read-out: IC50 (approximate), SARS-CoV-2 M^pro activity, GFP normalized to TagBFP2
[4] = system: A549 cells; details: human
[5] = biological target: c-Kit enzyme (Homo sapiens, UniProt P10721); experiment: Luminescence-based in vitro c-Kit kinase assay; assay type: biochemical
[6] = biological target: M^pro; details: masitinib activity on M^pro; read-out: inhibition constant, Ki; cited from earlier work
[7] = A549+hACE2 cells, MOI 0.1, 48 h, normalized to DMSO

c-Kit enzyme, sequence (P10721 26-976): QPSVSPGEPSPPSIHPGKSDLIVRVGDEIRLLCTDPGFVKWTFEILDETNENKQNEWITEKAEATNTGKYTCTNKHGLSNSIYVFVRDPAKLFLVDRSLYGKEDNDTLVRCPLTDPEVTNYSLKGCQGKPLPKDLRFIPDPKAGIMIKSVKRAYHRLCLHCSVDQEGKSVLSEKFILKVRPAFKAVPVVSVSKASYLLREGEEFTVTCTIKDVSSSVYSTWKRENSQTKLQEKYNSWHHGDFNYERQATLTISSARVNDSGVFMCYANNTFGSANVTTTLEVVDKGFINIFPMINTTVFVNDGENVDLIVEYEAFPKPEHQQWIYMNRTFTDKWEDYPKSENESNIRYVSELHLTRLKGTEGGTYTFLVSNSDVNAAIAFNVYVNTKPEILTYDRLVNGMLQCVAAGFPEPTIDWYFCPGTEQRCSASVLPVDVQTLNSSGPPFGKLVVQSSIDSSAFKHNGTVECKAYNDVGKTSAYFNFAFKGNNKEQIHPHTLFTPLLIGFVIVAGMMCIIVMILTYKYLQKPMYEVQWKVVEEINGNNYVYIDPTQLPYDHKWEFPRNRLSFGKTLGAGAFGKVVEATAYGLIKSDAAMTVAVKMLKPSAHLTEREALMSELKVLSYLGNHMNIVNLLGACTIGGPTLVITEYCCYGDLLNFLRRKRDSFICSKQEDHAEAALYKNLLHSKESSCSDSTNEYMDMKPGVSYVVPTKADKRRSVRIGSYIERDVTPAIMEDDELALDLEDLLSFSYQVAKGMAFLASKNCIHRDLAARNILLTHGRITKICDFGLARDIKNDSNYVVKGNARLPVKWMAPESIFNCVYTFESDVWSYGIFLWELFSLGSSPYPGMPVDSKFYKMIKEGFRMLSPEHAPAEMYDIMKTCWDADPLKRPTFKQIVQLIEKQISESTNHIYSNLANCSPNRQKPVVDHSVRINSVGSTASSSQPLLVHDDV

SMILES	IC50 ([1]; Betacoronavirus 1, OC43, 48 h) [µM]	Doubling Time ([4]; 0.3 µM) [h]	Doubling Time ([4]; 1 µM) [h]	Doubling Time ([4]; 3 µM) [h]	Doubling Time ([4]; 10 µM) [h]	IC50 [5] [µM]	further results
Cc1ccc(NC(=O)c2ccc(CN3CCN(C)CC3)cc2)cc1Nc1nc(-c2cccnc2)cs1 [masitinib (TFA), Masitinib trifluoroacetate salt]							IC50 [1, 7]: 3.98 µM; effect on cell growth (in words) ([2]; 3 µM dose): still inhibited cell division; effect on cell growth (in words) ([2]; 10 µM compound dose): completely inhibited cell growth
Cc1ccc(NC(=O)c2ccc(CN3CCN(C)CC3)cc2)cc1Nc1nc(-c2cccnc2)cs1 [masitinib (Original), masitinib]	1.71						
Cc1ccc(NC(=O)c2ccc(CN3CCN(C)CC3)cc2O)cc1Nc1nc(-c2cccnc2)cs1 [M2]	6.77	21.52	21.44	21.57	33.63	0.233	IC50 [3]: 8.35 µM
Cc1ccc(NC(=O)c2ccc(CN3CCN(C)CC3)c(O)c2)cc1Nc1nc(-c2cccnc2)cs1 [M1]	4.7	21.75	21.89	23.72	52.78	1.09	IC50 (approximate), SARS-CoV-2 M^pro activity, GFP normalized to TagBFP2 [3]: did not show inhibition of M^pro activity
CC(=O)Nc1ccc(C)c(Nc2nc(-c3cccnc3)cs2)c1 [M4]	5.7	22.01	21.47	22.28	37.36		
Cc1ccc(NC(=O)c2ccc(CN3CCN(C)CC3)cc2)cc1Nc1nc(-c2cccnc2)cs1 [masitinib]							Ki [6]: 2.6 µM
Cc1ccc(OC(=O)c2ccc(CN3CCN(C)CC3)cc2)cc1Nc1nc(-c2cccnc2)cs1 [M5]		22.37	21.95	21.83	25.19		IC50, HCoV-OC43 antiviral assay [1, 7]: no measurable antiviral activity
Cc1ccc(C(=O)Nc2ccc(C)c(Nc3nc(-c4cccnc4)cs3)c2)cc1 [M3]	3.99	22.13	21.49	22.49	30.76	0.077	IC50 [3]: 2.54 µM
